Patent publication US12187742B2 (XRAD Therapeutics, Inc., priority 2018, dated 2025)
Structures can show the parent of a compound that is named as a salt.

How the values were obtained:
[1] = target: DNA-PK (Homo sapiens (Human), UniProt P78527); assay: DNA-PK Enzyme-Linked Immunosorbent Assay (phosphorylation of GST-p53 (1-101) peptide); format: biochemical; details: ELISA
Procedure, shortened: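 Inhibition measured by 450 nm absorbance after HRP/TMB detection of phospho-Ser15 on immobilized GST-p53 (1-101). The kinase reaction used 0.1 μg/mL DNA-PK and 20 μM ATP, 1 h at 25 °C. Ten 3-fold compound dilutions, top final concentration 100 nM.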

[2] = target: ATM (Homo sapiens (Human), UniProt Q13315); assay: ATM in Cell Western Assay (pKAP1 in etoposide-treated MCF-7 cells); format: cell-based
Procedure, shortened: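 After paraformaldehyde fixation and Triton X-100 permeabilization, immunostained plates were read by infrared scanning (ODYSSEY CLx). Compound was given as 10 doses, 3-fold dilutions from a 1 μM final top concentration.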

[3] = MCF-7 cells, etoposide 100 μM, 1 hr, pKAP1 readout
[4] = pKAP1 in etoposide-treated MCF-7 cells

Chain of ATM (Q13315 whole entry): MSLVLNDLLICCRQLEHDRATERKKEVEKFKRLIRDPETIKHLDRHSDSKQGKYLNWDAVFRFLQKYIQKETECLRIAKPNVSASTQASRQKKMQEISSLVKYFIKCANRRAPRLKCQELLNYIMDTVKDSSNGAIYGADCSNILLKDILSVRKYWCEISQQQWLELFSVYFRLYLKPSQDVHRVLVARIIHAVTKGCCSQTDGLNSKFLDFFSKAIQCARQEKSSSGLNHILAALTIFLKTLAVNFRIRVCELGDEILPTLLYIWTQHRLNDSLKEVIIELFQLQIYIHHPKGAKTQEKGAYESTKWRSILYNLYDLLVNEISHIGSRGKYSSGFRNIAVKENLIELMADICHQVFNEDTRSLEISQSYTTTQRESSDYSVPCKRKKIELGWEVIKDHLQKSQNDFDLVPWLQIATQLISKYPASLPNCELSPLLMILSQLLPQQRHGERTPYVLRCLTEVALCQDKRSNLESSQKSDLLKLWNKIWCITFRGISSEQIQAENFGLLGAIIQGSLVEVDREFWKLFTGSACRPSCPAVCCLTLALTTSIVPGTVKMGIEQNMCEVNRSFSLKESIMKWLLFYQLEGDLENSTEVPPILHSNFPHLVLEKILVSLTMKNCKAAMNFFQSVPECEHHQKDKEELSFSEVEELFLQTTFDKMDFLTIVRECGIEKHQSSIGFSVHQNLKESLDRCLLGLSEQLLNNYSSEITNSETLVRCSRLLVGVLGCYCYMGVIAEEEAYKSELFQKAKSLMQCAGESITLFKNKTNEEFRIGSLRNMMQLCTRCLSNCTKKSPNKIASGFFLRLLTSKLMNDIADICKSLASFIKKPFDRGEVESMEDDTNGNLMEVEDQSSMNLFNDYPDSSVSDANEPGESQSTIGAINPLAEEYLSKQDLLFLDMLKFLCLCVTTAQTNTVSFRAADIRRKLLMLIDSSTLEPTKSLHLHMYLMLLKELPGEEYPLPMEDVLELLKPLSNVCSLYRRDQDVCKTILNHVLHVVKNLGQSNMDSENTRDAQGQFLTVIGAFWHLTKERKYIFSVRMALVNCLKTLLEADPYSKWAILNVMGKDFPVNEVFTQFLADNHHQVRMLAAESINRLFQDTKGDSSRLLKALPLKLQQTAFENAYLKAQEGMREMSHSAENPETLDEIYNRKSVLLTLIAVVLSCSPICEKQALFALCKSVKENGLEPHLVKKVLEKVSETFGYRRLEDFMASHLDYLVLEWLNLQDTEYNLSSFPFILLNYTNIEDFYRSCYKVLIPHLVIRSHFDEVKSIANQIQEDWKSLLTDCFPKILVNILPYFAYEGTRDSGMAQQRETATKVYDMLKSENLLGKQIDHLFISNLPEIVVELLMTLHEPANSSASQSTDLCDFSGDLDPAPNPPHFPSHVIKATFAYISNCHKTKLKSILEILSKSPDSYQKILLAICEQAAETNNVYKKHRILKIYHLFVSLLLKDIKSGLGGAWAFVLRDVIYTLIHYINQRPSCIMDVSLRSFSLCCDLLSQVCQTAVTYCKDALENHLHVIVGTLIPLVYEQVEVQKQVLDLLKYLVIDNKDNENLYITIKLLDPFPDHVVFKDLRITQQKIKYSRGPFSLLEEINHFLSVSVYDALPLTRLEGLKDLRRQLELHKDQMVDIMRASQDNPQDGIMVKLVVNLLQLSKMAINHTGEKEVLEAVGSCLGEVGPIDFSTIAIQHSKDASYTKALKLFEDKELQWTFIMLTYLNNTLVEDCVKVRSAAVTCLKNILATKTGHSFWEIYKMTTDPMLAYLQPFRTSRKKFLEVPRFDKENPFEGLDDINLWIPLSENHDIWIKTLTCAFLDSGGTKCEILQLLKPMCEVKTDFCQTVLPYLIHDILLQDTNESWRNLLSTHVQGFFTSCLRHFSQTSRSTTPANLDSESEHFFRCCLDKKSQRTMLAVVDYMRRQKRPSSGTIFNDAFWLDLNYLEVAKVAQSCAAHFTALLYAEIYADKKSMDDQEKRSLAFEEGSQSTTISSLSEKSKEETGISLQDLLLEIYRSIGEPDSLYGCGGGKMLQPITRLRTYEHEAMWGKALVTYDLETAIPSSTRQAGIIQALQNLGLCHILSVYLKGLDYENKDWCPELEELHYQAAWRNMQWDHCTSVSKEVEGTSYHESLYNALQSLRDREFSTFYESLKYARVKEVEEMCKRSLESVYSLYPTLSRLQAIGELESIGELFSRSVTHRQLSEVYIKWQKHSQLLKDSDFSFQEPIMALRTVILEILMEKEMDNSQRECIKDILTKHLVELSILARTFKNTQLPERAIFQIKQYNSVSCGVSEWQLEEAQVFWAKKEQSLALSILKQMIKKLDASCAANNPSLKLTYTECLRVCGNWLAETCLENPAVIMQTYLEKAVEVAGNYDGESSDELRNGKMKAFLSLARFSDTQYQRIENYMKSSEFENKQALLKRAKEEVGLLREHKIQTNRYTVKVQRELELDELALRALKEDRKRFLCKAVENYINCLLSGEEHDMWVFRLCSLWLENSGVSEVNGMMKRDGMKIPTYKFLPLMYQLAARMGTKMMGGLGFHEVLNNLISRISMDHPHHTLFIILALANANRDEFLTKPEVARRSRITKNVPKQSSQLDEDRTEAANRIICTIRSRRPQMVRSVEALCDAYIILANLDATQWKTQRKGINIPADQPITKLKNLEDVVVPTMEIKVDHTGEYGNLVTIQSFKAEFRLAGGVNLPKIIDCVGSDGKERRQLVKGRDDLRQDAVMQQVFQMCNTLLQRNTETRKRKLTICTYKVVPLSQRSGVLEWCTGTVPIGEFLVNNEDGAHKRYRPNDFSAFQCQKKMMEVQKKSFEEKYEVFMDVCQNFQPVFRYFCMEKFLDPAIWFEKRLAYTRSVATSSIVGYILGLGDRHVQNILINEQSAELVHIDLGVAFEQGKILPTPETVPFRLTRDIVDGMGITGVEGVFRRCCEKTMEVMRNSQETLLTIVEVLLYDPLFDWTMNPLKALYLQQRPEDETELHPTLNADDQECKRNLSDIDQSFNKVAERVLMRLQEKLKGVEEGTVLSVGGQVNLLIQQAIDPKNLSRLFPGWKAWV

Row | SMILES | IC50 ([1]; ATP 20 μM) | IC50 [2, 3] | IC50 ([1]; 20 μM ATP) | IC50 [2, 4]
1 | Cc1ccc(S(=O)(=O)Nc2cc(-c3ccc4ncc5c(c4c3)C3(CC3)C(=O)N5C)cnc2N2CCC(N3CCCCC3)CC2)cn1 [Example 218] | < 0.5 nM | 1 to 100 nM |  | 
2 | CN(C)CCCOc1ncc(-c2ccc3ncc4c(c3c2)C2(CCC2)C(=O)N4C)cc1NS(=O)(=O)CCN [Example 223, 2-Amino-N-(2-(3-(dimethylamino)propoxy)-5-(3′-methyl-2′-oxo-2′,3′-dihydrospiro[cyclobutane-1,1′-pyrrolo[2,3-c]quinolin]-8′-yl)pyridin-3-yl)ethane-1-sulfonamide] | < 0.5 nM | 1 to 100 nM |  | 
3 | CN1C(=O)C2(CCC2)c2c1cnc1ccc(-c3cnc(OCC(O)CN4CCCCC4)c(NS(C)(=O)=O)c3)cc21 (stereo not drawn) [Example 287, N-(2-(2-Hydroxy-3-(piperidin-1-yl)propoxy)-5-(3′-methyl-2′-oxo-2′,3′-dihydrospiro[cyclobutane-1,1′-pyrrolo[2,3-c]quinolin]-8′-yl)pyridin-3-yl)methanesulfonamide] | < 0.5 nM | 1 to 100 nM |  | 
4 | CN(C)CCCOc1ncc(-c2ccc3ncc4c(c3c2)C2(CCC2)C(=O)N4C)cc1NS(=O)(=O)C1CC1 [Example 190, N-(2-(3-(Dimethylamino)propoxy)-5-(3′-methyl-2′-oxo-2′,3′-dihydrospiro[cyclobulane-1,1′-pyrrolo[2,3-c]quinolin]-8′-yl)pyridin-3-yl)cyclopropanesulfonamide] | 1 to 100 nM | 1 to 100 nM |  | 
5 | CN1CCN(c2ncc(-c3ccc4ncc5c(c4c3)C3(CC3)C(=O)N5C)cc2NS(=O)(=O)c2ccccc2)CC1 [Example 49, N-(5-(3′-Methyl-2′-oxo-2′,3′-dihydrospiro[cyclopropane-1,1′-pyrrolo[2,3-c]quinolin]-8′-yl)-2-(4-methylpiperazin-1-yl)pyridin-3-yl)benzenesulfonamide] | < 0.5 nM | 0.5 to 1 nM |  | 
6 | CN(C)CCCOc1ncc(-c2ccc3ncc4c(c3c2)C2(CC2)C(=O)N4C)cc1NS(=O)(=O)c1ccn(C)n1 [Example 112, N-(2-(3-(Dimethylamino)propoxy)-5-(3′-methyl-2′-oxo-2′,3′-dihydrospiro[cyclopropane-1,1′-pyrrolo[2,3-c]quinolin]-8′-yl)pyridin-3-yl)-1-methyl-1H-pyrazole-3-sulfonamide] | < 0.5 nM | 1 to 100 nM |  | 
7 | COc1cccc(S(=O)(=O)Nc2cc(-c3ccc4ncc5c(c4c3)C3(CC3)C(=O)N5C)cnc2OCCCN(C)C)c1 [Example 104] | 1 to 100 nM | 0.5 to 1 nM |  | 
8 | CN(C)CCCOc1ncc(-c2ccc3ncc4c(c3c2)C2(CCC2)C(=O)N4C)cc1NS(=O)(=O)N1CCC1 [Example 164, N-(2-(3-(Dimethylamino)propoxy)-5-(3′-methyl-2′-oxo-2′,3′-dihydrospiro[cyclobutane-1,1′-pyrrolo[2,3-c]quinolin]-8′-yl)pyridin-3-yl)azetidine-1-sulfonamide] | < 0.5 nM | 1 to 100 nM |  | 
9 | CC1CCCN1S(=O)(=O)Nc1cc(-c2ccc3ncc4c(c3c2)C2(CCC2)C(=O)N4C)cnc1OCCCN(C)C (stereo not drawn) [Example 172, N-(2-(3-(Dimethylamino)propoxy)-5-(3′-methyl-2′-oxo-2′,3′-dihydrospiro [cyclobulane-1,1′-pyrrolo[2,3-c]quinolin]-8′-yl)pyridin-3-yl)-2-methylpyrrolidine-1-sulfonamide] | 1 to 100 nM | 1 to 100 nM |  | 
10 | CN(C)CCCOc1ncc(-c2ccc3ncc4c(c3c2)C2(CC2)C(=O)N4C)cc1NS(=O)(=O)c1ccc(OC(F)F)cc1 [Example 126, 4-(Difluoromethoxy)-N-(2-(3-(dimethylamino)propoxy)-5-(3′-methyl-2′-oxo-2′,3′-dihydrospiro[cyclopropane-1,1′-pyrrolo[2,3-c]quinolin]-8′-yl)pyridin-3-yl)benzenesulfonamide] | < 0.5 nM | 1 to 100 nM |  | 
11 | CN(C)CCCCOc1ncc(-c2ccc3ncc4c(c3c2)C2(CC2)C(=O)N4C)cc1NS(=O)(=O)c1ccccc1 [Example 35, N-(2-(4-(Dimethylamino)butoxy)-5-(3′-methyl-2′-oxo-2′,3′-dihydrospiro [cyclopropane-1,1′-pyrrolo[2,3-c]quinolin]-8′-yl)pyridin-3-yl)benzenesulfonamide] | 0.5 to 1 nM | 1 to 100 nM |  | 

Continued, values first:

Row | IC50 ([1]; ATP 20 μM) | IC50 [2, 3] | IC50 ([1]; 20 μM ATP) | IC50 [2, 4] | SMILES
12 | 0.5 to 1 nM | 1 to 100 nM |  |  | CCNC1CN(c2ncc(-c3cc4c5c(cnc4cc3F)N(C)C(=O)C53CCC3)cc2NS(C)(=O)=O)C1 [Example 331, N-(2-(3-(Ethylamino)azetidin-1-yl)-5-(7′-fluoro-3′-methyl-2′-oxo-2′,3′-dihydrospiro [cyclobutane-1,1′-pyrrolo [2,3-c]quinolin]-8′-yl)pyridin-3-yl)methanesulfonamide]
13 |  |  | 0.5 to 1 nM | 1 to 100 nM | CC(C)NCCOc1ncc(-c2cc3c4c(cnc3cc2F)N(C)C(=O)C42CCC2)cc1NS(=O)(=O)N(C)C [Example 369, 8′-{5-[(Dimethylsulfamoyl)amino]-6-{2-[(propan-2-ylamino]ethoxy′}pyridin-3-yl}-7′-fluoro-3′-methyl-2′,3′-dihydrospiro [cyclobutane-1,1′-pyrrolo[2,3-c]quinoline]-2′-one hydrochloride]
14 |  |  | 1 to 100 nM | 1 to 100 nM | CC(C)NCCOc1ncc(-c2cc3c4c(cnc3cc2F)N(C)C(=O)C42CN(C(C)C)C2)cc1NS(=O)(=O)C1CC1 [Example 484, N-(5-(7′-Fluoro-1-isopropyl-3′-methyl-2′-oxo-2′,3′-dihydrospiro[azetidine-3,1′-pyrrolo[2,3-c]quinolin]-8′-yl)-2-(2-(isopropylamino)ethoxy)pyridin-3-yl)cyclopropanesulfonamide]
15 |  |  | 1 to 100 nM | 1 to 100 nM | CC(C)NCCOc1ncc(-c2cc3c(cc2F)ncc2c3[C@]3(C[C@H](c4ccccn4)C3)C(=O)N2C)cc1NS(C)(=O)=O [Example 434, cis-N-(5-(7′-Fluoro-3′-methyl-2′-oxo-3-(pyridin-2-yl)-2′,3′-dihydrospiro [cyclobutane-1,1′-pyrrolo[2,3-c]quinolin]-8′-yl)-2-(2-(isopropylamino)ethoxy)pyridin-3-yl)methanesulfonamide]
16 | 1 to 100 nM | 1 to 100 nM |  |  | CN1C(=O)C2(CCC2)c2c1cnc1cc(F)c(-c3cnc(N4CC(N(C)C)C4)c(NS(=O)(=O)N(C)C)c3)cc21 [Example 316, 8′-{6-[3-(Dimethylamino)azetidin-1-yl]-5-[(dimethylsulfamoyl)amino]pyridin-3-yl}-7′-fluoro-3′-methyl-2′,3′-dihydrospiro[cyclobulane-1,1′-pyrrolo[2,3-c]quinoline]-2′-one hydrochloride]
17 |  |  | 1 to 100 nM | 1 to 100 nM | COc1ccccc1N1CC2(C1)C(=O)N(C)c1cnc3cc(F)c(-c4cnc(OCCNC(C)C)c(NS(C)(=O)=O)c4)cc3c12 [Example 535, N-(5-(7′-Fluoro-1-(2-methoxyphenyl)-3′-methyl-2′-oxo-2′,3′-dihydrospiro [azetidine-3,1′-pyrrolo[2,3-c]quinolin]-8′-yl)-2-(2-(isopropylamino)ethoxy)pyridin-3-yl)methanesulfonamide]
18 |  |  | 1 to 100 nM | 1 to 100 nM | CC(C)NCCOc1ncc(-c2cc3c4c(cnc3cc2F)N(C)C(=O)C42CN(c3ccc(OC(F)(F)F)cc3)C2)cc1NS(C)(=O)=O [Example 541, N-(5-(7′-Fluoro-3′-methyl-2′-oxo-1-(4-(trifluoromethoxy)phenyl)-2′,3′-dihydrospiro[azetidine-3,1′-pyrrolo[2,3-c]quinolin]-8′-yl)-2-(2-(isopropylamino)ethoxy)pyridin-3-yl)methanesulfonamide]
